The source of these data is patent US20070043011A1, “Substituted benzanilide compound and noxious organism controlling agent” (priority 2003, published 2007).

Common to all, as to type: in vivo
In assay [1] the test system is Common cutworm (Spodoptera litura). Nature of the assay: Insecticidal test (comparative test) against common cutworm, third instar larvae. The following applies: leaf dip, counted after 6 days. As for the experimental part:
10% emulsifiable concentrates of the compound of the present invention and comparative compound were diluted with water containing a spreading agent to prepare chemical solutions with a predetermined concentration. To the chemical solutions was dipped leaves of Chinese olive for about 10 seconds, and after air-drying, they were placed in a laboratory dish, then, 7 Common cutworm (Spodoptera litura) with third instar larvae per the dish were released therein, and the dish was covered with a lid having holes and contained at a thermostat chamber at 25° C. Artificial feed (1 cm^3) was added after 2 days, a number of dead insect(s) was counted after 6 days and a rate of dead insects was calculated by the following calculation formula. Incidentally, the test was carried out with two districts. Rate of dead insects (%)=(Number of dead insects/Number of released insects)×100

Assay [2] deals with Common cutworms (Spodoptera litura). Nature of the assay: Insecticidal test against common cutworm (leaf dip). The following applies: foliar, 144 h, read-out: insecticidal rate (rate of dead insects). The protocol:
(§1) A 10% emulsifiable concentrate (depending on the compounds, 25% wettable powder was applied for the test) of the compound of the present invention was diluted with water containing a spreading agent to prepare a chemical solution with a concentration of 100 ppm. To the chemical solution was dipped leaves of Chinese olive for about 10 seconds, and after air-drying, they were placed in a laboratory dish, then, 10 Common cutworms (Spodoptera litura) with second instar larvae per the dish were released therein, and the dish was covered with a lid having holes and contained at a thermostat chamber at 25° C. A number of dead insect(s) after 6 days was counted and a rate of dead insects was calculated by the following calculation formula. Incidentally, the test was carried out with two districts. Rate of dead insects (%)=(Number of dead insects/Number of released insects)×100

Assay [3] has as its system diamondback moths (Plutella xylostella). In words: Insecticidal test against diamondback moth (leaf dip). As to conditions: foliar, 144 h, read-out: insecticidal rate (rate of dead insects). As for the experimental part:
as §1, with “diamondback moths (Plutella xylostella)” for “Common cutworms (Spodoptera litura)”, “in” for “by”, “same manner as in Test Example 1.” for “following calculation formula.”, “districts.” for “districts. Rate of dead insects (%)=(Number of dead insects/Number of released insects)×100”

The mark [4] stands for this setting: 100 ppm, leaf dip, second instar larvae, after 6 days, 25° C.

Where two headings read alike, the source gives them in different places.

For `Cc1cc(C(O)(c2ccc(Cl)cc2)C(F)(F)F)ccc1NC(=O)c1cccc(I)c1C(=O)NC(C)(C)CS(C)(=O)=O` (stereo not shown) [1-087], the “Rate of dead insects” value in assay [1] (concentration 0.1 ppm) came to 0%; in assay [1] (concentration 0.3 ppm), 21.3%; in assay [1] (concentration 1 ppm), 71.4%; in assay [1] (concentration 3 ppm) it was 100%; in assay [1] (concentration 10 ppm), 100%; in assay [1] (concentration 33 ppm), 100%.

With `CSCC(C)NC(=O)c1c(I)cccc1C(=O)Nc1ccc(C(O)(c2ccc(Cl)cc2)C(F)(F)F)cc1C` (stereo not shown) [1-036], the “Rate of dead insects” value in assay [1] (concentration 0.1 ppm) is reported as 14.3%; in assay [1] (concentration 0.3 ppm), 28.6%; in assay [1] (concentration 1 ppm) it was 85.7%; in assay [1] (concentration 3 ppm), 100%; in assay [1] (concentration 10 ppm), 100%; in assay [1] (concentration 33 ppm), 100%.

Consider `Cc1cc(C(O)(COc2ccc(Cl)cc2)C(F)(F)F)ccc1NC(=O)c1cccc(I)c1C(=O)NC(C)C` (stereo not shown) [Compound No. 2-004, N^1-[4-[2-(4-chlorophenoxy)-1-hydroxy-1-trifluoromethylethyl]-2-methylphenyl]-3-iodo-N^2-isopropylphthalic diamide], for which the pest or weed control at 100 ppm was at least 80% in assay [2] (setting [4]) and 100% in assay [3] (setting [4]).

For `Cc1cc(C(O)(c2ccc(OS(C)(=O)=O)cc2)C(F)(F)F)ccc1NC(=O)c1cccc(I)c1C(=O)NC(C)C` (stereo not shown) [Compound No. 1-015, N^1-[4-[2,2,2-trifluoro-1-hydroxy-1-(4-methanesulfonyloxyphenyl)ethyl]-2-methylphenyl]-3-iodo-N^2-isopropylphthalic diamide], the pest or weed control at 100 ppm was at least 80% in assay [2] and 100% in assay [3].

On to `Cc1cc(C(O)(C=Cc2ccc(Cl)cc2)C(F)(F)F)ccc1NC(=O)c1cccc(I)c1C(=O)NC(C)C` (stereo not shown) [Compound No. 2-018, N^1-[4-[3-(4-chlorophenyl)-1-hydroxy-1-trifluoromethyl-2-propenyl]-2-methylphenyl]-3-iodo-N^2-isopropylphthalic diamide], for which the pest or weed control at 100 ppm in assay [2] (setting [4]) is at least 80%; in assay [3] (setting [4]) it was 100%.

For `Cc1cc2c(cc1NC(=O)c1cccc(I)c1C(=O)NC(C)C)OC(F)(F)C2(O)C(F)(F)F` (stereo not shown) [Compound No. 4-002, N^1-(2,2-difluoro-3-hydroxy-5-methyl-3-trifluoromethyl-2,3-dihydrobenzofuran-6-yl)-3-iodo-N^2-isopropylphthalic diamide], the pest or weed control at 100 ppm is at least 80% in assay [2] (setting [4]) and 100% in assay [3] (setting [4]).

Turning to `CSCC(C)(C)NC(=O)c1c(I)cccc1C(=O)Nc1ccc(C(O)(c2ccc(Cl)cc2)C(F)(F)F)cc1C` (stereo not shown) [1-084], the “Rate of dead insects” value is 0% in assay [1] (concentration 0.3 ppm); 21.3% in assay [1] (concentration 1 ppm); 71.4% in assay [1] (concentration 3 ppm); 100% in assay [1] (concentration 10 ppm); 100% in assay [1] (concentration 33 ppm).

For `COC(c1ccc(Cl)cc1)(c1ccc(NC(=O)c2cccc(I)c2C(=O)NC(C)C)c(C)c1)C(F)(F)F` (stereo not shown) [Compound No. 3-002, N^1-[4-[1-(4-chlorophenyl)-2,2,2-trifluoro-1-methoxyethyl]-2-methylphenyl]-3-iodo-N^2-isopropylphthalic diamide], the figures for the pest or weed control at 100 ppm in assay [2] and in assay [3] were at least 80% and 100%, respectively.

With `Cc1cc(C(O)(c2ccc(OC(F)(F)F)cc2)C(F)(F)F)ccc1NC(=O)c1cccc(I)c1C(=O)NC(C)C` (stereo not shown) [Compound No. 1-009, N^1-[4-[2,2,2-trifluoro-1-hydroxy-1-(4-trifluoromethoxyphenyl)ethyl]-2-methylphenyl]-3-iodo-N^2-isopropylphthalic diamide], the values for the pest or weed control at 100 ppm in assay [2] and in assay [3] were at least 80% and 100%, respectively.

Regarding `Cc1cc(C(O)(c2ccc3c(c2)OC(F)(F)C(F)(F)O3)C(F)(F)F)ccc1NC(=O)c1cccc(I)c1C(=O)NC(C)C` (stereo not shown) [1-028, N^1-[4-[2,2,2-trifluoro-1-hydroxy-1-(2,2,3,3-tetrafluoro-1,4-dioxa-2,3-dihydronaphthalen-6-yl)ethyl]-2-methylphenyl]-3-iodo-N^2-isopropylphthalic diamide], the pest or weed control at 100 ppm in assay [2] is at least 80%; in assay [3], 100%.

For the molecule `Cc1cc(C(O)(C(F)(F)F)C(F)(F)Oc2ccc(Cl)cc2)ccc1NC(=O)c1cccc(I)c1C(=O)NC(C)C` (stereo not shown) [Compound No. 2-008, N^1-[4-[2-(4-chlorophenoxy)-2,2-difluoro-1-hydroxy-1-trifluoromethylethyl]-2-methylphenyl]-3-iodo-N^2-isopropylphthalic diamide], the pest or weed control at 100 ppm in assay [2] (setting [4]) was at least 80%; in assay [3] (setting [4]) it was 100%.

As to `CSCC(C)(C)NC(=O)c1c(I)cccc1C(=O)Nc1ccc(C(O)c2ccc(Cl)cc2)cc1C` (stereo not shown) [Comparative compound A, reference compound], the “Rate of dead insects” value in assay [1] (concentration 33 ppm) worked out at 0%.
